Laboratory results as given in US9783537B2, “3-(4-ethylnylphenyl) pyridopyrimidinone compounds and process for preparation thereof useful as potential anticancer agents” (Council of Scientific & Industrial Research, priority 2013, dated 2017).
Like-named read-outs stand apart in the source and are kept apart here.

How the values were obtained:
[1] = test system: NCI/ADR-RES; test: SRB 48 h growth assay, Ovarian NCI/ADR-RES; format: cell-based, human
[2] = test system: MDA-MB-231/ATCC; test: SRB 48 h growth assay, Breast MDA-MB-231/ATCC; format: cell-based, human
[3] = test system: NCI-H23; test: SRB 48 h growth assay, Non-small Cell Lung NCI-H23; format: cell-based, human
[4] = test system: OVCAR-5; test: SRB 48 h growth assay, Ovarian OVCAR-5; format: cell-based, human; settings: OVCAR-5, Ovarian
[5] = test system: COLO 205; test: SRB 48 h growth assay, Colon COLO 205; format: cell-based, human; settings: COLO 205, Colon
[6] = test system: UACC-62; test: SRB 48 h growth assay, Melanoma UACC-62; format: cell-based, human; settings: UACC-62, Melanoma
[7] = test system: SK-OV-3; test: SRB 48 h growth assay, Ovarian SK-OV-3; format: cell-based, human; settings: SK-OV-3, Ovarian
[8] = test system: KM12; test: SRB 48 h growth assay, Colon KM12; format: cell-based, human
[9] = test system: OVCAR-4; test: SRB 48 h growth assay, Ovarian OVCAR-4; format: cell-based, human; settings: OVCAR-4, Ovarian
[10] = test system: LOX IMVI; test: SRB 48 h growth assay, Melanoma LOX IMVI; format: cell-based, human
[11] = test system: OVCAR-3; test: SRB 48 h growth assay, Ovarian OVCAR-3; format: cell-based, human; settings: OVCAR-3, Ovarian
[12] = test system: seven colon cancer cell line (COLO 205, HCC-2998, HCT-116, HCT-15, HT29, KM12 and SW-620); test: in vitro anticancer activity, colon panel; format: cell-based; settings: Homo sapiens; seven colon cancer cell lines, exposure at least 48 h; read-out: GI50, range over panel
[13] = test system: SN12C; test: SRB 48 h growth assay, Renal SN12C; format: cell-based, human
[14] = test system: two prostate cancer cell line (PC-3, DU-145); test: in vitro anticancer activity, prostate panel; format: cell-based; settings: Homo sapiens; two prostate cancer cell lines, exposure at least 48 h; read-out: GI50, range over panel
[15] = in vitro anticancer activity, non-small cell lung panel; format: cell-based; settings: Homo sapiens; nine non-small cell lung cancer cell lines, exposure at least 48 h; read-out: GI50, range over panel
[16] = test system: SK-MEL-2; test: SRB 48 h growth assay, Melanoma SK-MEL-2; format: cell-based, human; settings: SK-MEL-2, Melanoma
[17] = test system: M14; test: SRB 48 h growth assay, Melanoma M14; format: cell-based, human
[18] = test system: 786-0; test: SRB 48 h growth assay, Renal 786-0; format: cell-based, human; settings: 786-0, Renal
[19] = test system: SF-268; test: SRB 48 h growth assay, CNS SF-268; format: cell-based, human; settings: SF-268, CNS
[20] = test system: RPMI-8226; test: SRB 48 h growth assay, Leukemia RPMI-8226; format: cell-based, human; settings: RPMI-8226, Leukemia
[21] = test system: HT-29; test: SRB 48 h growth assay, Colon HT-29; format: cell-based, human; settings: HT-29, Colon
[22] = test system: NCI-H322M; test: SRB 48 h growth assay, Non-small Cell Lung NCI-H322M; format: cell-based, human
[23] = test system: HOP-62; test: SRB 48 h growth assay, Non-small Cell Lung HOP-62; format: cell-based, human; settings: HOP-62, Non-small Cell Lung
[24] = test system: HCT-116; test: SRB 48 h growth assay, Colon HCT-116; format: cell-based, human; settings: HCT-116, Colon
[25] = test system: HL-60(TB); test: SRB 48 h growth assay, Leukemia HL-60(TB); format: cell-based, human
[26] = test system: MOLT-4; test: SRB 48 h growth assay, Leukemia MOLT-4; format: cell-based, human; settings: MOLT-4, Leukemia
[27] = test system: MCF7; test: SRB 48 h growth assay, Breast MCF7; format: cell-based, human
[28] = Homo sapiens, read-out: Growth Inhibition GI50
[29] = Homo sapiens, read-out: Log10 GI50 (converted)
[30] = Homo sapiens, read-out: Log10 LC50 (converted)

Q: Which “Log10 TGI50” value [1] does the source give for `C#Cc1ccc(-n2c(/C=C/c3ccc(O)cc3)nc3ncccc3c2=O)cc1` [4b, (E)-3-(4-Ethynylphenyl)-2-(4-hydroxystyryl)pyrido[2,3-d]pyrimidin-4(3H)-one] here?
A: >−4.00

Q: What about the GI50 [1, 28] of the same compound?
A: 5.28 µM

Q: What about the GI50 [1, 29] of the same compound?
A: 5.25 µM

Q: What about the CC50 [1, 30] of the same compound?
A: > 100 µM

Q: What about the “Log10 TGI50” value [2] of the same compound?
A: >−4.00

Q: And the GI50 [2, 28]?
A: 11.4 µM

Q: What about the GI50 [2, 29] of the same compound?
A: 11.5 µM

Q: And the CC50 [2, 30]?
A: > 100 µM

Q: And the “Log10 TGI50” value [3]?
A: >−4.00

Q: What about the GI50 [3, 28] of the same compound?
A: 5.52 µM

Q: What about the GI50 [3, 29] of the same compound?
A: 5.5 µM

Q: And the LC50 [3, 30]?
A: > 100 µM

Q: What about the GI50 [4, 28] of the same compound?
A: 32.3 µM

Q: And the GI50 [4, 29]?
A: 32.4 µM

Q: What about the CC50 [4, 30] of the same compound?
A: > 100 µM

Q: And the “Log10 TGI50” value [4]?
A: >−4.00

Q: And the “Log10 TGI50” value [5]?
A: >−4.00

Q: What about the GI50 [5, 28] of the same compound?
A: > 100 µM

Q: What about the GI50 [5, 29] of the same compound?
A: > 100 µM

Q: What about the CC50 [5, 30] of the same compound?
A: > 100 µM

Q: What about the GI50 [6, 28] of the same compound?
A: 4.01 µM

Q: And the GI50 [6, 29]?
A: 3.98 µM

Q: What about the CC50 [6, 30] of the same compound?
A: > 100 µM

Q: What about the “Log10 TGI50” value [6] of the same compound?
A: >−4.00

Q: And the GI50 [7, 28]?
A: 3.38 µM

Q: And the GI50 [7, 29]?
A: 3.39 µM

Q: And the CC50 [7, 30]?
A: > 100 µM

Q: What about the “Log10 TGI50” value [7] of the same compound?
A: −4.54

Q: And the “Log10 TGI50” value [8]?
A: −4.22

Q: What about the GI50 [8, 28] of the same compound?
A: 3.81 µM

Q: And the GI50 [8, 29]?
A: 3.8 µM

Q: And the CC50 [8, 30]?
A: > 100 µM

Q: And the GI50 [9, 28]?
A: 22.8 µM

Q: What about the GI50 [9, 29] of the same compound?
A: 1.58 µM

Q: What about the CC50 [9, 30] of the same compound?
A: > 100 µM

Q: What about the “Log10 TGI50” value [9] of the same compound?
A: >−4.00

Q: What about the “Log10 TGI50” value [10] of the same compound?
A: >−4.00

Q: And the GI50 [10, 28]?
A: 5.35 µM

Q: What about the GI50 [10, 29] of the same compound?
A: 5.37 µM

Q: What about the CC50 [10, 30] of the same compound?
A: > 100 µM

Q: What about the GI50 [11, 28] of the same compound?
A: 2.41 µM

Q: What about the GI50 [11, 29] of the same compound?
A: 2.4 µM

Q: And the CC50 [11, 30]?
A: > 72.4 µM

Q: What about the “Log10 TGI50” value [11] of the same compound?
A: −5.24

Q: What about the GI50 [12] of the same compound?
A: 3.19 to 27.5 µM

Q: What about the “Log10 TGI50” value [13] of the same compound?
A: >−4.00

Q: What about the GI50 [13, 28] of the same compound?
A: 5.16 µM

Q: What about the GI50 [13, 29] of the same compound?
A: 5.13 µM

Q: And the CC50 [13, 30]?
A: > 100 µM

Q: What about the GI50 [14] of the same compound?
A: 3.96 to 5.36 µM

Q: What about the GI50 [15] of the same compound?
A: 2.31 to 17.3 µM

Q: What about the GI50 [16, 28] of the same compound?
A: 3.95 µM

Q: What about the GI50 [16, 29] of the same compound?
A: 3.98 µM

Q: And the CC50 [16, 30]?
A: > 100 µM

Q: What about the “Log10 TGI50” value [16] of the same compound?
A: −4.39

Q: And the “Log10 TGI50” value [17]?
A: −5.09

Q: And the GI50 [17, 28]?
A: 2.7 µM

Q: And the GI50 [17, 29]?
A: 2.69 µM

Q: And the CC50 [17, 30]?
A: > 100 µM

Q: What about the “Log10 TGI50” value [18] of the same compound?
A: >−4.30

Q: And the GI50 [18, 28]?
A: 4.88 µM

Q: What about the GI50 [18, 29] of the same compound?
A: 4.9 µM

Q: What about the CC50 [18, 30] of the same compound?
A: > 100 µM

Q: And the GI50 [19, 28]?
A: 5.24 µM

Q: What about the GI50 [19, 29] of the same compound?
A: 5.25 µM

Q: What about the CC50 [19, 30] of the same compound?
A: > 100 µM

Q: And the “Log10 TGI50” value [19]?
A: −4.17

Q: What about the GI50 [20, 28] of the same compound?
A: 3.41 µM

Q: What about the GI50 [20, 29] of the same compound?
A: 3.39 µM

Q: What about the CC50 [20, 30] of the same compound?
A: > 100 µM

Q: What about the “Log10 TGI50” value [20] of the same compound?
A: >−4.00

Q: What about the “Log10 TGI50” value [21] of the same compound?
A: >−4.00

Q: What about the GI50 [21, 28] of the same compound?
A: 52.8 µM

Q: What about the GI50 [21, 29] of the same compound?
A: 52.5 µM

Q: And the CC50 [21, 30]?
A: > 100 µM

Q: And the “Log10 TGI50” value [22]?
A: >−4.00

Q: And the GI50 [22, 28]?
A: 5.58 µM

Q: What about the GI50 [22, 29] of the same compound?
A: 5.62 µM

Q: And the CC50 [22, 30]?
A: > 100 µM

Q: What about the “Log10 TGI50” value [23] of the same compound?
A: −4.25

Q: What about the GI50 [23, 28] of the same compound?
A: 5.66 µM

Q: And the GI50 [23, 29]?
A: 5.62 µM

Q: What about the CC50 [23, 30] of the same compound?
A: > 100 µM

Q: What about the “Log10 TGI50” value [24] of the same compound?
A: >−4.00

Q: And the GI50 [24, 28]?
A: 5.07 µM

Q: What about the GI50 [24, 29] of the same compound?
A: 5.01 µM

Q: And the CC50 [24, 30]?
A: > 100 µM

Q: And the “Log10 TGI50” value [25]?
A: −4.52

Q: And the GI50 [25, 28]?
A: 3.2 µM

Q: And the GI50 [25, 29]?
A: 3.24 µM

Q: And the CC50 [25, 30]?
A: > 100 µM

Q: And the GI50 [26, 28]?
A: 7.35 µM

Q: And the GI50 [26, 29]?
A: 7.41 µM

Q: What about the CC50 [26, 30] of the same compound?
A: > 100 µM

Q: What about the “Log10 TGI50” value [26] of the same compound?
A: >−4.00

Q: And the “Log10 TGI50” value [27]?
A: >−4.00

Q: What about the GI50 [27, 28] of the same compound?
A: 3.04 µM

Q: What about the GI50 [27, 29] of the same compound?
A: 3.02 µM

Q: And the CC50 [27, 30]?
A: > 100 µM
